{"source": "patent US20240200005A1", "about": "“METHOD FOR DEVELOPING AND/OR REPROGRAMMING PLANT CELLULAR OBJECTS” (SCREENSYS GMBH, priority 2021, published 2024)", "system": "microspores of Brassica napus", "assay": "Dose-response of TSA trigger on growth/reprogramming of microspores in microfluidic compartments (image-based size analysis)", "type": "cell-based", "conditions": "for percentage of total microspores larger than 45 μm (multicellular stage): after 3 days", "excerpt": "For the cultivation of the microspores, the desired compartment sequences were generated by application of the system as shown in FIG. 1. The core of the system 2 was a five-channel precision syringe pump 11 (NEMESYS Cetoni GmbH, Germany) which can feed up to five fluids 6a-6e carried in glass syringes 20 (SETonic GmbH, Germany). One channel was used for the delivery of perfluoro-methyldecalin (PP9) as carrier fluid 6/6a, which is immiscible with the other fluids and thus separates the individual aqueous compartments 4 from one another inside the generated compartment 4 sequence. Another channel was used for 1×NLN13 (recipe below) medium 6b to dilute the medium with the microspores 14 and adjust the total volume of the compartments 4, and thus the concentration of the plant cellular objects 14 and the other substances, during formation. Two different trigger solutions 6c, 6d were used in channels three and four. Channel five was used for dosing the cell suspension, i.e. the medium with the plant cellular objects 14, itself. A cell container vial 12 was employed to feed the microspores 14 into the compartment generator 10. For this, a small conical glass vial 12 with a capacity of about 2 ml was used (See FIG. 1). The vial 12 was filled with the microspore suspension, i.e. medium with plant cellular objects 14, and closed airtight and free of air bubbles. The initial microspore density in the vial 12 was about 700.000 microspores/ml.\nBy syringe pump-controlled addition of medium 6e into the container 12 the suspended microspores 14 were fed through the container outlet conduit 16, a 0.2 mm ID FEP tube, into the compartment generator 10. ID stands for inner diameter. Instead of medium 6e it is also contemplated to add carrier fluid 6 to the container 12 with the suspended microspores. The individual syringes 20 were connected with the compartment generator 10 via respective conduits 17. Compartments 4 of about 120 nL volume each were formed and forwarded in a 0.5 mm ID PTFE tube as the microfluidic conduit 8 for incubation. A detailed description of the used compartment generator 10 can be found in “Cao J, Richter F, Kastl M, Erdmann J, Burgold C, Dittrich D, Schneider S, Köhler J M, Groß GA (2020) Droplet-Based Screening for the Investigation of Microbial Nonlinear Dose-Response Characteristics System, Background and Examples. Micromachines. 10.3390/mi1106057”, which is incorporated herein in its entirety by reference. For sufficient diffusive aeration during long-time incubation times, PTFE tubes with low wall thickness were used (inner diameter: 0.5 mm, outer diameter: 1.0 mm). Typical flow rate conditions of about 30 μl/min for the aqueous phases, i.e. the sample fluid, i.e. the medium 6b, the medium with the plant cellular objects, and the trigger solutions 6c, 6d, and about 100 μl/min for the embedding phase, i.e. the carrier fluid 6a, were used. […] However, other tube materials and dimensions may be used.\nFor a dose-response experiment the Trichostatin A (TSA) was chosen as a trigger. The stimulating effect of TSA on the germination of the microspores 14 was investigated in a concentration range from 0.01 μM up to 5 μM. Therefore, TSA stock solutions of 0.2 μM TSA 6c and 10 μM TSA 6d were used in the syringes 20 for triggers 1 and 2. The application of an appropriate flow rate program yielded the compartment 4 sequence with the desired concentrations of TSA in the compartments 4, as shown in FIG. 2. The resulting compartments 4 were composed of 50% volume microspore suspension, 50%-0% dilution medium 6b and 0-50% of the trigger solution 6c, 6d. Depending on the intended concentration of TSA in the generated compartments 4, either 0.2 μM TSA solution 6c or 10 μM TSA solution 6d was added to the generated compartments 4. The flow rate for the carrier medium 6e, here PP9, was kept constant at 50 μl/min. […]", "data": [{"smiles": "CC(/C=C/C(=O)NO)=C\\[C@@H](C)C(=O)c1ccc(N(C)C)cc1", "note": "[TSA, Trichostatin A]", "values": [{"measurement": "percentage of microspores larger than 35 μm", "setting": "0.01 μM TSA, after 3 days incubation at 32° C.", "result": "about 3%"}, {"measurement": "change of percentage of microspores larger than 35 μm", "setting": "0.01 μM TSA, after 6 days versus 3 days", "result": "increased only marginally"}, {"measurement": "percentage of total microspores larger than 45 μm (multicellular stage)", "setting": "0.05 μM TSA", "result": "about 1%"}, {"measurement": "percentage of total microspores with a diameter of at least 35 μm", "setting": "0.05 μM TSA, after 6 days", "result": "about 8%"}, {"measurement": "percentage of very large microspores (>45 μm)", "setting": "0.05 μM TSA, after 6 days", "result": "about 2%"}, {"measurement": "percentage of total microspores larger than 45 μm (multicellular stage)", "setting": "0.1 μM TSA", "result": "about 1%"}, {"measurement": "percentage of microspores larger than 35 μm", "setting": "0.1 μM TSA, after 3 days incubation at 32° C.", "result": "~9", "unit": "%"}, {"measurement": "percentage of microspores larger than 35 μm (total column)", "setting": "0.1 μM TSA, after 6 days", "result": 11.4, "unit": "%"}, {"measurement": "proportion of microspores larger than 45 μm", "setting": "0.1 μM TSA, after 6 days", "result": 4.4, "unit": "%"}, {"measurement": "percentage of total microspores larger than 45 μm (multicellular stage)", "setting": "0.35 μM TSA", "result": "about 1%"}, {"measurement": "percentage of microspores larger than 35 μm", "setting": "0.35 μM TSA, after 3 days incubation at 32° C.", "result": 8, "unit": "%"}, {"measurement": "percentage of microspores larger than 35 μm", "setting": "0.35 μM TSA, after 6 days", "result": 11.7, "unit": "%"}, {"measurement": "percentage of very large microspores (>45 μm)", "setting": "0.35 μM TSA, after 6 days", "result": 3.8, "unit": "%"}, {"measurement": "percentage of microspores larger than 35 μm", "setting": "0.5 μM TSA, after 3 days incubation at 32° C.", "result": "about 4.4%"}, {"measurement": "percentage of total microspores with a diameter of at least 35 μm", "setting": "0.5 μM TSA, after 6 days", "result": "about 8%"}, {"measurement": "percentage of very large microspores (>45 μm)", "setting": "0.5 μM TSA, after 6 days", "result": "about 2%"}, {"measurement": "percentage of microspores larger than 35 μm", "setting": "1 μM TSA, after 3 days incubation at 32° C.", "result": "~4", "unit": "%"}, {"measurement": "green portion of column (microspores larger than 45 μm)", "setting": "1 μM TSA, after 6 days", "result": "approximately 1.7%"}, {"measurement": "percentage of microspores larger than 35 μm (total column height)", "setting": "1 μM TSA, after 6 days", "result": 6.4, "unit": "%"}, {"measurement": "percentage of microspores larger than 35 μm", "setting": "2 μM TSA, after 3 days incubation at 32° C.", "result": "~0", "unit": "%"}, {"measurement": "percentage of microspores larger than 35 μm", "setting": "2 μM TSA, after 6 days", "result": "about 1.3%"}, {"measurement": "percentage of microspores larger than 35 μm", "setting": "5 μM TSA, after 3 days incubation at 32° C.", "result": 0, "unit": "%"}, {"measurement": "growth of microspores", "setting": "5 μM TSA, after 6 days", "result": "without any recognizable growth"}, {"measurement": "percentage of microspores larger than 35 μm", "setting": "0.05 M TSA (so in the source), after 3 days incubation at 32° C.", "result": "approximately 7.6%"}, {"measurement": "lethal dose", "setting": "microspores, no recognizable growth after 6 days", "result": 5, "unit": "µM"}]}]}
